Experimental findings from patent US9353089B2, “Compositions and methods for the treatment of malaria” (Saint Louis University, priority 2013, dated 2016) are described below.

Usually IC50 stands for the point on the concentration scale where inhibition reaches its midpoint.

Like-named read-outs stand apart in the source and are kept apart here. Marks after values point to notes of the source that are not given here.

One series concerns the target recombinant human BACE1 (Homo sapiens, UniProt P56817). The series can be described thus: β-Secretase (BACE1) enzyme inhibition FRET assay. The class given is biochemical. The gist of the method:
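FRET cleavage by rhBACE1 with substrate at 20 μM final, 60 min at room temperature. Time-resolved fluorescence read at Ex/Em 360/460 nm. IC50 obtained by non-linear regression.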

The target in series [1] is recombinant human Cathepsin E (Homo sapiens (Human), UniProt P14091). The series can be described thus: Cathepsin E enzyme inhibition FRET assay. The class given is biochemical. As to conditions: Table 8; read-out: CatE IC50. As to the method:
The enzymatic inhibition activity assays were determined using the fluorescence resonance energy transfer (FRET) assay. The assays were performed in a 384-well plate format. […] The concentration of Cathepsin D was 20 ng/μL, and 1 ng/μL of Cathepsin E was used. CatD and CatE were activated by incubation in assay buffer (0.1 M NaOAc, 0.2 M NaCl, pH 3.5) at room temperature for 30 min. Subsequently, the rhBACE-1 substrate (R&D Systems, catalog# ES004), the Cathepsin D and Cathepsin E substrate (R&D Systems, Catalog # ES001) were added accordingly to final concentration 20 μM to initiate the reaction. After 60 min incubation at room temperature, the time-resolved fluorescence at Ex/Em=360 nm/460 nm was measured on an EnVision multilabel plate reader (Perkin-Elmer). The analytical software, GraphPad Prism 5.0 (GraphPad Software, Inc., USA) was used to generate IC50 values via non-linear regression analysis, which are reported in Tables 8-13 below as BACE1 IC50 values.

Series [2] in a line: Human Plasma Protein Binding (hPPB) assay. The class given is in vitro ADME. As to conditions: rapid equilibrium dialysis. As to the method:
Human Plasma Protein Binding (hPPB) of test compounds was measured by rapid equilibrium dialysis device using the RED Device Inserts. In the reaction of 5 h, the drug concentration of the sample chamber and buffer chamber can be determined, through which we can calculated hPPB of test compounds. RED Device Inserts and Single-Use RED Base Plate were purchased from the Linden Bioscience, Woburn, Mass. (Taiwan, Thermo scientific). […]. Pooled human plasma from healthy individuals in this study was obtained from the Southern Medical University (China) and was stored frozen at −20° C. until use. SHZ-88A Reciprocating thermostatic oscillator was purchased from Taicang City Experimental Equipment Co. (China). Chlorpromazine (>99% in purity, positive control) and Phenacetin (>99% in purity, internal standard, IS) were all purchased from the Sigma Chemical Co. (China). Chlorpromazine HCl was used as a positive control. An aliquot ([…]) of plasma was accurately added into the sample chamber, and 6 μL compounds solution (500 μM, 50% DMSO) was added (n=3). An aliquot (500 μL) of Dulbecco solution was added into the buffer chamber. These solution were all oscillated for 5 hours (37° C., 90 rpm). Then, 50 μL solution in sample chamber was removed, 50 μL Dulbecco solution was added, and mixed. Also, 50 μL solution in buffer chamber was removed, 50 μL plasma was added, and mixed. 200 μL ACN (including internal Standard, 100 ng/mL) were added separately, oscillated, mixed, and centrifuged (20 min, 15000 g). An aliquot (50 μL) of the supernatant was accurately transferred to a clean 1.5 mL test tube and 100 μL H2O was added, mixed. 10 μL of mixture was separately injected into LC-MS system for determination of the drug concentration in the sample chamber and buffer chamber. The data were analyzed using the following equation: % hPPB=[1−(Concentrationbuffer chamber/Concentrationplasma chamber)]*100% (Barre, et al., 1985, which is incorporated herein by reference).
(Equilibrium dialysis compares concentrations on both sides of a semipermeable membrane.)

Series [3] in a line: Rat pharmacokinetic (PK) analysis. The class given is in vivo. As to conditions: for half-life: male, SD, plasma, read-out: Rat PK t1/2 (converted). As to the method: Male SD rats, weighing 180-220 g (Southern China Medical University, China) were utilized for the studies. Animals were maintained on standard animal chow and water ad libitum, in a climate controlled room (23±1° C.), 30-70% relative humidity, a minimum of 10 exchanges of room air per hour and a 12-h light/dark cycle) for one week prior to experiments. The test compound was dissolved in suitable solvent. Pharmacokinetic properties were determined following i.v. and oral administration. Animals were randomly distributed into two experimental groups (n=4). The oral groups were given 5 mg/kg of the test compound by gastric gavage. The other group was dosed by injection into the tail vein (1 mg/kg). […]; 2, 10, 30 min and 1, 2, 3, 4, 6, 8, 11 and 24 h (i.v.). Whole blood samples were collected in heparinized tubes. The plasma fraction was immediately separated by centrifugation (8,000 rpm, 6 min, 4° C.) and stored at −20° C. until LC-MS analysis. The rats were humanely euthanasia by carbon dioxide 24 hours after experiment without pain.
Plasma Sample Analysis. Standard Curve Sample Preparation:
The compound was dissolved in DMSO at a concentration of 2 mg/mL and diluted with 50% methanol solution to series concentration as follow: 20, 50, 100, 500, 1000, 2000, 4000, 6000, 12000, 40000 ng/mL. 10 μL series concentration solution and 50 μL blank plasma were added to 1.5 mL tube and vortex for 3 min, then 150 μL acetonitrile containing internal standard were added and vortex for 5 min, finally spin tube in centrifuge at 16000 g for 40 min at 4° C. Plasma sample preparation: The plasma samples were prepared using protein precipitation method. […] LC/MS/MS analysis: After centrifuge, 100 μL supernatant was transfer to the 96 well plate and analyzed by LC-MS/MS using an Applied Biosystems-Sciex model API 3000 mass spectrometer. The pharmacokinetics parameters were calculated by analyzing the compound concentration in plasma samples using the pharmacokinetic software DAS.2.0.

Series [4] can be described thus: Plasma compound concentration in the in vivo efficacy study. As to conditions: mice; for concentration at 24 h / concentration at 1 h / concentration at 6 h: NIH, mouse, plasma; for concentration at 24 h: 24 h post last dose on Day 3; for concentration at 1 h: 1 h post last dose on Day 3; for concentration at 6 h: 6 h post last dose on Day 3.
For series [5], the system named is Plasmodium chabaudi ASS and ASCQ strains. The series can be described thus: In vivo antimalarial efficacy 4-day suppressive test. As to conditions: NIH mice, Day 4 postinoculation.
Protocol: Briefly, NIH mice (n=8 per group) were inoculated i.p. with 2×10^7 parasitized (Plasmodium chabaudi ASS or ASCQ) red blood cells. […] Groups (n=6) including a vehicle control and chloroquine (CQ) as a reference drug were included. Parasitemia levels were determined on the day following the last treatment (Day 4).
Setting [6] is: 100 mpk orally once daily for four days.

Chain of recombinant human BACE1 (P56817 46-501 limits assumed): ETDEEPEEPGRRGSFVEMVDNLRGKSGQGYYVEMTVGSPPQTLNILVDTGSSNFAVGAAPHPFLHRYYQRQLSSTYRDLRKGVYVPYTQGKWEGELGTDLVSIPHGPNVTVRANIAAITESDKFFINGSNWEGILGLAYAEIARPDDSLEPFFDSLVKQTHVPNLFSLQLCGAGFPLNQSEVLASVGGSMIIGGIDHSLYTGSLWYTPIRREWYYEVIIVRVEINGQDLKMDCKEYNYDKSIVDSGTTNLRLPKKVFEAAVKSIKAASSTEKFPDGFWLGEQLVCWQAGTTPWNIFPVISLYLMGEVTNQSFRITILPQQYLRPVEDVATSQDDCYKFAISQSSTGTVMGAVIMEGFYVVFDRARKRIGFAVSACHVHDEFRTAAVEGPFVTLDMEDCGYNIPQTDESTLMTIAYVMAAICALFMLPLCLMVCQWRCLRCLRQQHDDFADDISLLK
Chain of recombinant human Cathepsin E (P14091 54-396): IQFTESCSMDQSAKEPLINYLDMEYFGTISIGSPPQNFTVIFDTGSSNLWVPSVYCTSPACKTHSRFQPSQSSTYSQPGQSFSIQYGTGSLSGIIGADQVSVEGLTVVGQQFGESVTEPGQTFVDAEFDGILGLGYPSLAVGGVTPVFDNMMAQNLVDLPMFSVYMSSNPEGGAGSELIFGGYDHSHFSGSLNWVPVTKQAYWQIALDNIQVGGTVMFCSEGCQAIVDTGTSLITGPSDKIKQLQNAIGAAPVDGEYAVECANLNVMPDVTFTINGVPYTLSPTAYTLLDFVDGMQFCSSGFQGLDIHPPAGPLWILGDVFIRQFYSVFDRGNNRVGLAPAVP

Turning to `COc1ccc(C2(c3ccc(OC)cc3)NC(=N)N(C3CCOCC3)C2=O)cc1` [Example 176, 2-imino-5,5-bis(4-methoxyphenyl)-3-(oxan-4-yl)-imidazolidin-4-one], the IC50 at recombinant human BACE1 (Table 8, read-out: BACE IC50) was about 10000 nM; at recombinant human BACE1 (Table 13, read-out: BACE1 IC50), about 10100 nM; in series [1] it was 511 nM. For the same compound, in series [2], the “hPPB (%)” value is given as 78.1%. Moreover, in series [3] (5 mg/kg oral, 1 mg/kg i.v.), the “Rat PK oral bioavailability (% F)” value turned out to be 21 % F. Also, the half-life in series [3] was 1.1 h. The compound also showed a concentration at 24 h in series [4] (110 mg/kg, 110 mpk oral) of 29 ng/mL. Moreover, the “Plasma [compound] (ng/mL), determined at 30 min post dose” value in series [4] (110 mpk oral, 30 min post last dose on Day 3) is reported as 4140^e ng/mL. The “% Inhibition of parasitemia” value in series [5] (110 mpk orally once daily for four days) was found to be 63%.
`COc1ccc(C2(c3ccc(OC)cc3)NC(=N)N(C3CCN(C(=O)OC(C)(C)C)CC3)C2=O)cc1` [Example 206, tert-butyl 4-[2-imino-4,4-bis(4-methoxyphenyl)-5-oxoimidazolidin-1-yl]piperidine-1-carboxylate]: at recombinant human BACE1 (Table 8, read-out: BACE IC50), the IC50 was found to be 6010 nM. In series [1], the concentration for half-maximal inhibition (IC50) worked out at 233 nM. Further, in series [2], the “hPPB (%)” value is recorded as 99.7%. For the same compound, the half-life in series [3] is 1.2 h. Also, in series [4] (100 mg/kg, 100 mpk oral), the concentration at 1 h was found to be 2520 ng/mL, the concentration at 6 h was 2190 ng/mL and the concentration at 24 h worked out at 7 ng/mL. Moreover, the “% Inhibition of parasitemia” value in series [5] (setting [6]) is 73%.
In the case of `COc1ccc(C2(c3ccc(OC)cc3)NC(=N)N(CC3CCOCC3)C2=O)cc1` [Example 275, 2-imino-5,5-bis(4-methoxyphenyl)-3-(oxan-4-ylmethyl)imidazolidin-4-one], the concentration for half-maximal inhibition (IC50) at recombinant human BACE1 (Table 8, read-out: BACE IC50) amounted to 2070 nM; at recombinant human BACE1 (Table 13, read-out: BACE1 IC50), 2070 nM; in series [1], 841 nM. The “hPPB (%)” value in series [2] worked out at 88.7%. For the same compound, in series [4] (100 mg/kg, 100 mpk oral), the concentration at 1 h was determined as 10400 ng/mL. The compound also registered a concentration at 6 h in series [4] (100 mg/kg, 100 mpk oral) of 3030 ng/mL. The compound further returned a concentration at 24 h in series [4] (100 mg/kg, 100 mpk oral) of 123 ng/mL. In series [5] (setting [6]), the “% Inhibition of parasitemia” value stood at 41%.
